US20220249525A1, “Fatty Acid Compounds for Prevention and Treatment of Neurodegenerative Disorders” (T OMEGA AS, priority 2019, published 2022)

Columns and labels:
[1] = Mildronate-induced fatty liver, liver triacylglycerol; format: in vivo; conditions: C57BL/6 mice; Mildronate 550 mg/kg body weight in low-fat diet; 3 weeks
Experimental: C57BL/6 mice were divided in 4 groups of 10 mice and fed a control low-fat diet, low-fat diets with TTA (720 mg/kg body weight), Mildronate (550 mg/kg body weight) or a combination of these two treatments for 3 weeks (n=10). At sacrifice, liver samples were collected, lipids were extracted, and triacylglycerol (TAG) measured on the Hitachi 917 system (Roche Diagnostics, GmbH, Mannheim, Germany) using a kit from Roche Diagnostics.

[2] = tested on: HeLaNRF1/c4 reporter cells; assay: Mitochondria respiration assay (OCR) in HeLaNRF1/c4 reporter cells after 5 days; format: cell-based
Experimental: Mitochondria function was analyzed by measuring oxygen consumption rate (OCR) by extracellular flux analysis in a Seahorse XFe96 instrument (Agilent Seahorse XF Technologies). The measurements were performed in DADA basic media without phenol red, supplemented with L-glutamine (2 mM), pyruvate (2 mM), and sodium chloride, NaCl (32 mM) (Sigma-Aldrich). Respiratory rates were measured following sequential additions of glucose (10 mM), oligomycin, carbonyl cyanide m-chlorophenyl hydrazine (CCCP) and a mixture of rotenone (1 μM) and antimycin A (1 μM). Before carrying out the measurements for each cell model, optimizations were done for; cell number, CCCP, and oligomycin concentrations. […] The OCR measured initially (before any additions) represented the rate ‘basal respiration.’ The addition of ATP synthase inhibitor oligomycin provided oxygen consumption independent of ATP production (‘leak activity’). Maximal respiration (also referred to as ‘respiratory capacity’) was measured upon addition of the uncoupler CCCP. […] To evaluate the effects of the different treatments, the respiratory rates from compound-treated wells were normalized to protein content, and calculated as percentage of the average respiratory rate of the DMSO-treated control wells. […]

[3] = tested on: HeLaNRF1/c4 reporter cells; assay: NRF1-regulated mitochondrial biogenesis, GFP reporter by flow cytometry; format: cell-based; conditions: 5 days; AICAR 250 μM or 500 μM, resveratrol 25 uM, test compounds 30 μM and 60 μM
Experimental: The HeLaNRF1/c4 reporter cells were employed to investigate effects of the modified fatty acids on NRF1-regulated mitochondrial biogenesis. The cells (250,000) were seeded in T75 flasks and incubated for 3 hours to allow attachment. The compounds were dissolved in DMSO and diluted in culture medium to provide the final concentration. DMSO at a concentration equivalent to the highest compound concentration was added to control cultures. Resveratrol and AICAR were used as positive controls. Resveratrol has not previously been tested in this reporter model, but we found it relevant to include it for purposes of experimental and mechanistic comparisons. After 3 days of treatment the media was replaced with fresh media containing the corresponding compound. On day 5, the cells were harvested and the cultures split into three fractions: One fraction was used for detection of mitoGFP expression by flow cytometry, to assess effects on NRF-1 regulated mitochondrial biogenesis. Flow cytometry analysis was performed as previously described. Another fraction was used for extraction of RNA and subsequent gene expression analysis using quantitative PCR (see below). The last fraction was employed to investigate effects on mitochondrial respiratory function by extracellular flux analysis (described above). The experiment was replicated three times. […]

[4] = tested on: HeLaNRF1/c4 reporter cells; assay: Resazurin conversion assay in HeLaNRF1/c4 reporter cells; format: cell-based; conditions: test compounds 30 μM and 60 μM, long treatment
Experimental: (§1) Non-small cell lung cancer cells, HCC827 (ATCC) were cultured in RPMI-1640 Glutamax medium (Sigma-Aldrich St. Louis, Mo., USA), under conventional culture conditions. Media was supplemented with 10% Fetal Bovine Serum (FBS), 1% glutamine and 1% streptomycin/penicillin (Sigma-Aldrich). HeLaNRF1/c4 reporter cells were cultured in Dulbecco's Modified Eagle's Medium (DMEM) supplemented with 10% FBS, 2 mM L-Glutamine, 100 u/ml penicillin/streptomycin (Sigma-Aldrich,). Incubation was done at 37° C. in 5% CO2.
Cell viability/proliferation was determined by the resazurin conversion assay. A total of 4000 cells were seeded in each of the 96-well plates in 100 μl of medium. After 3 hours of incubation, 100 μl of fresh medium with respective concentration of the desired compound or controls were added. Resazurin solution (Sigma-Aldrich) was added (10%, v/v in PBS) after 1 or 3 day treatment, followed by 3 hour incubation at 37° C. and 5% CO2. Resazurin fluorescence (excitation, 540 nm; emission, 590 nm) was measured and measurements were corrected for background signals. […] Relative viability was calculated from percent fluorescence relative to DMSO-treated control wells.
In order to investigate if some of the compounds induce metabolic adaptations involving mitochondrial biogenesis, we employed the HeLaNRF1/c4 reporter cells in which activation of the transcription factor NRF1 triggers expression of GFP. Since adaptations of mitochondrial biogenesis are known to require some days to develop, we used a relatively low dosage (30 μM and 60 μM) of the compounds, to allow longer treatment period compared to the previous short term experiments.

HCC827 cells = assay: Mitochondria respiration assay (OCR, extracellular flux) in HCC827 cells; format: cell-based; conditions: compared to control
Experimental: as §1
Mitochondria function was analyzed by measuring oxygen consumption rate (OCR) by extracellular flux analysis in a Seahorse XFe96 instrument (Agilent Seahorse XF Technologies). The measurements were performed in DADA basic media without phenol red, supplemented with L-glutamine (2 mM), pyruvate (2 mM), and sodium chloride, NaCl (32 mM) (Sigma-Aldrich). Respiratory rates were measured following sequential additions of glucose (10 mM), oligomycin, carbonyl cyanide m-chlorophenyl hydrazine (CCCP) and a mixture of rotenone (1 μM) and antimycin A (1 μM). Before carrying out the measurements for each cell model, optimizations were done for; cell number, CCCP, and oligomycin concentrations. For the HCC 827 cell model optimal conditions were; 30,000 cells/well, 0.5 μM CCCP, and 3 μM Oligomycin; and in HeLaNRF1/c4 reporter cell model; 20,000 cells/well, 1 μM CCCP and 3 μM Oligomycin. The OCR measured initially (before any additions) represented the rate ‘basal respiration.’ The addition of ATP synthase inhibitor oligomycin provided oxygen consumption independent of ATP production (‘leak activity’). Maximal respiration (also referred to as ‘respiratory capacity’) was measured upon addition of the uncoupler CCCP. […] After the extracellular flux analysis the analysis plates were washed with Phosphate Buffered Saline (PBS) and frozen at −80° C. The BCA assay (Pierce BCA protein assay kit, Thermo Fisher Scientific, Waltham, Mass. USA) was employed to measure the protein content in the wells. To evaluate the effects of the different treatments, the respiratory rates from compound-treated wells were normalized to protein content, and calculated as percentage of the average respiratory rate of the DMSO-treated control wells. All treatments were performed with 6-8 replicate wells.

[5] = tested on: HeLaNRF1/c4 reporter cells; assay: Gene expression (qPCR) in HeLaNRF1/c4 reporter cells; format: cell-based; conditions: long-term treatment, vs control
Experimental: The HeLaNRF1/c4 reporter cells were employed to investigate effects of the modified fatty acids on NRF1-regulated mitochondrial biogenesis. The cells (250,000) were seeded in T75 flasks and incubated for 3 hours to allow attachment. The compounds were dissolved in DMSO and diluted in culture medium to provide the final concentration. DMSO at a concentration equivalent to the highest compound concentration was added to control cultures. Resveratrol and AICAR were used as positive controls. Resveratrol has not previously been tested in this reporter model, but we found it relevant to include it for purposes of experimental and mechanistic comparisons. After 3 days of treatment the media was replaced with fresh media containing the corresponding compound. On day 5, the cells were harvested and the cultures split into three fractions: One fraction was used for detection of mitoGFP expression by flow cytometry, to assess effects on NRF-1 regulated mitochondrial biogenesis. Flow cytometry analysis was performed as previously described. Another fraction was used for extraction of RNA and subsequent gene expression analysis using quantitative PCR (see below). The last fraction was employed to investigate effects on mitochondrial respiratory function by extracellular flux analysis (described above). The experiment was replicated three times.
Total RNA was extracted from harvested cells (RNAeasy kit Qiagen, Hilden, Germany). The RNA content was quantified on Nanodrop 1000 Spectrophotometer (Thermo Scientific). From 1 μg total RNA, cDNA was synthesized using High-Capacity Reverse Transcription Kit (Applied Biosystems, Carlsbad, Calif., US). Gene quantification was done using TaqMan probes for gene expression assays (Applied Biosystems). Probes used were: PGC1α (PPARG coactivator 1α), Hs00173304_m1; HIF1α (hypoxia inducible factor 1α), Hs00153153_m1; PDK1 (pyruvate dehydrogenase kinase 1), Hs01561847_m1; PDK4, (pyruvate dehydrogenase kinase 4), Hs01037712_m1; SIRT4 (sirtuin 4) Hs01015516_g1; ACOX1 (acyl-CoA oxidase 1) Hs01074241_m1; as reference genes, we used; Eukaryotic 18S rRNA Hs99999901_s1; actin beta Hs99999903_m1. Fold change was calculated as geometric mean of ΔΔCt of the two reference genes.

SH-SY5Y cells = assay: GC-MS analysis of TTA in cell medium and SH-SY5Y cells; format: in vitro ADME
Experimental: The GC-MS analysis was performed on treated SH-SY5Y cells and its medium prior and after treatment of TTA complexed with FBS. The technical work and analysis were performed by Pavol Bohov.
Total medium and cellular FA composition were analyzed by […] after preparation of FA methyl esters from total lipids by heating with a 1:1 mixture of methanol and toluene at 90° C. for 1 hour using sulfuric acid as a catalyst. Gas chromatograph Trace GC Ultra (Finnigan, USA) was equipped with a programmable temperature vaporization injector, flame-ionization detector, AS 2000 autosampler and with a fused silica capillary column coated with dimethylpolysiloxane stationary phase (J & W Scientific, USA). Hydrogen was used as a carrier gas. The column temperature was programmed from 110° C. to 310° C. with a gradient of 2.5° C./min.
The GC signal was acquired and evaluated with Chromeleon software version 6.80 (Dionex, USA). Peaks were identified by means of known FA standards and by means of mass spectra, obtained by GC-MS analysis (GCQ MS Detector, Finnigan, USA) on the same column.
The quantification of the FAs was based on the areas of the chromatographic peaks which were measured electronically. Subsequently, the areas were converted to weight units based on the known amount of the internal standard C21:0 which had been added to the sample. The response of the analytical procedure was determined with a mixture of pure standards (Sigma-Aldrich, USA; Supelco, USA; Larodan Fine Chemicals, Sweden).

[6] = inside SH-SY5Y cells after 24 hours

**Q.** Which “increase in liver triacylglycerol (TAG)” value [1] does the source give for `C[N+](C)(C)NCCC(=O)[O-]` [Mildronate, 3-(2,2,2-trimethylhydrazinium)propionate] here?
**A.** 7 fold

**Q.** For `NC(=O)c1ncn([C@@H]2O[C@H](CO)[C@@H](O)[C@H]2O)c1N` [AICAR, 5-aminoimidazole-4-carboxamide-1-β-D-ribofuranoside, reference compound], which basal respiratory rate [2] is on record?
**A.** without affecting the basal respiratory rate

**Q.** What about the “uncoupled respiratory capacity (CCCP)” value [2] of the same compound?
**A.** only increased in the AICAR-treated cells

**Q.** And the “GFP intensity (NRF1 reporter)” value [3]?
**A.** significant increase

**Q.** What about the resazurin conversion [4] of the same compound?
**A.** moderate reduction

**Q.** What about the “basal respiratory rate (OCR)” value (HCC827 cells) of the same compound?
**A.** little or no effect

**Q.** And the PGC1α expression [5]?
**A.** reduced PGC1α expression

**Q.** With `CCCCCCCC=CCCCCCSCC(=O)O` [TTA: 1n-8] as the compound, how does the “Medium 24 h, weight percent of total FA” value (SH-SY5Y cells; cell medium after 24 hours) read?
**A.** (0.18%)

**Q.** And the “Medium 24 h, concentration” value (SH-SY5Y cells; cell medium after 24 hours incubation with SH-SY5Y cells)?
**A.** 0.53 µM

**Q.** And the “Cells 24 h, concentration” value (SH-SY5Y cells; [6])?
**A.** 0.017 µM

**Q.** What about the “Cells 24 h, weight percent of total FA” value (SH-SY5Y cells; [6]) of the same compound?
**A.** (0.19%)
